Experimental data: the supplement of paper PMC10307832

Columns and labels:
Test in all cases: relative viability (nuclei count vs DMSO), 5 days (fraction); higher = more cells survive
CPI-613 = compound: O=C(O)CCCCC(CCSCc1ccccc1)SCc1ccccc1 [CPI-613]
How it was run: (§1)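 A plate was accepted only when its control CV was below 25% and the cells had doubled at least once. Viability is defined from nuclear counts as treated wells divided by vehicle wells, with the median taken across plates. That median covers lung cancer cell lines grown in 1536-well plates, dosed by pinning at five √10-spaced library-drug concentrations, and counted in MetaXpress from 4× Hoechst images after 5 days.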

Tivozanib = compound: COc1cc2nccc(Oc3ccc(NC(=O)Nc4cc(C)on4)c(Cl)c3)c2cc1OC [Tivozanib]
How it was run: as §1

Cytarabine = compound: Nc1ccn([C@@H]2O[C@H](CO)[C@@H](O)[C@@H]2O)c(=O)n1 [Cytarabine]
How it was run: as §1

Docetaxel = compound: CC(=O)O[C@@]12CO[C@@H]1C[C@H](O)[C@@]1(C)C(=O)[C@H](O)C3=C(C)[C@@H](OC(=O)[C@H](O)[C@@H](NC(=O)OC(C)(C)C)c4ccccc4)C[C@@](O)([C@@H](OC(=O)c4ccccc4)[C@H]21)C3(C)C [Docetaxel]
How it was run: as §1

JQ1 = compound: Cc1sc2c(c1C)C(c1ccc(Cl)cc1)=N[C@@H](CC(=O)OC(C)(C)C)c1nnc(C)n1-2 [JQ1]
How it was run: as §1

[1] = compound: Cc1cnc(-c2cnc(NCCNc3ccc(C#N)cn3)nc2-c2ccc(Cl)cc2Cl)[nH]1
How it was run: as §1

Pimozide = compound: O=c1[nH]c2ccccc2n1C1CCN(CCCC(c2ccc(F)cc2)c2ccc(F)cc2)CC1 [Pimozide]
How it was run: as §1

With NCI-H661 the relative viability (CPI-613; 5 µM) was 0.963, the relative viability (CPI-613; 15.81 µM) was 0.914 and the relative viability (CPI-613; 50 µM) was 0.956. The relative viability (CPI-613; 158.11 µM) was 0.832, the relative viability (CPI-613; 500 µM) was 0.233 and the relative viability (Tivozanib; 0.005 µM) was 0.954. It also gave a relative viability (Tivozanib; 0.01581 µM) of 0.975, a relative viability (Tivozanib; 0.05 µM) of 0.993 and a relative viability (Tivozanib; 0.1581 µM) of 0.992. The relative viability (Tivozanib; 0.5 µM) was 1.01, the relative viability (Cytarabine; 0.005 µM) was 1.04 and the relative viability (Cytarabine; 0.01581 µM) was 0.93. The relative viability (Cytarabine; 0.05 µM) was 0.902, the relative viability (Cytarabine; 0.1581 µM) was 0.715 and the relative viability (Cytarabine; 0.5 µM) was 0.581. For the same cell line, the relative viability (Docetaxel; 0.0002 µM) was 0.93, the relative viability (Docetaxel; 0.000632 µM) was 0.986 and the relative viability (Docetaxel; 0.002 µM) was 1. It also gave a relative viability (Docetaxel; 0.006325 µM) of 0.541, a relative viability (Docetaxel; 0.02 µM) of 0.459 and a relative viability (JQ1; 0.04 µM) of 1.03. For the same cell line, the relative viability (JQ1; 0.1265 µM) was 0.962, the relative viability (JQ1; 0.4 µM) was 0.952 and the relative viability (JQ1; 1.265 µM) was 0.879. For the same cell line, the relative viability (JQ1; 4 µM) was 0.769, the relative viability ([1]; 0.08 µM) was 0.979 and the relative viability ([1]; 0.253 µM) was 0.973. The relative viability ([1]; 0.8 µM) was 0.975, the relative viability ([1]; 2.53 µM) was 0.898 and the relative viability (Pimozide; 0.08 µM) was 0.99. It also gave a relative viability (Pimozide; 0.253 µM) of 1.01, a relative viability (Pimozide; 0.8 µM) of 0.925 and a relative viability (Pimozide; 2.53 µM) of 0.897. For the same cell line, the relative viability (Pimozide; 8 µM) was 0.924.

NCI-H727 gave a relative viability (CPI-613; 5 µM) of 0.831, a relative viability (CPI-613; 15.81 µM) of 0.825 and a relative viability (CPI-613; 50 µM) of 0.916. For the same cell line, the relative viability (CPI-613; 158.11 µM) was 0.654, the relative viability (CPI-613; 500 µM) was 0.309 and the relative viability (Tivozanib; 0.005 µM) was 0.8. For the same cell line, the relative viability (Tivozanib; 0.01581 µM) was 0.85, the relative viability (Tivozanib; 0.05 µM) was 1.01 and the relative viability (Tivozanib; 0.1581 µM) was 0.702. It also gave a relative viability (Tivozanib; 0.5 µM) of 0.917, a relative viability (Cytarabine; 0.005 µM) of 0.785 and a relative viability (Cytarabine; 0.01581 µM) of 0.766. For the same cell line, the relative viability (Cytarabine; 0.05 µM) was 0.788, the relative viability (Cytarabine; 0.1581 µM) was 0.402 and the relative viability (Cytarabine; 0.5 µM) was 0.382. For the same cell line, the relative viability (Docetaxel; 0.0002 µM) was 0.772, the relative viability (Docetaxel; 0.000632 µM) was 0.892 and the relative viability (Docetaxel; 0.002 µM) was 0.726. It also gave a relative viability (Docetaxel; 0.006325 µM) of 0.548, a relative viability (Docetaxel; 0.02 µM) of 0.413 and a relative viability (JQ1; 0.04 µM) of 0.923. It also gave a relative viability (JQ1; 0.1265 µM) of 0.988, a relative viability (JQ1; 0.4 µM) of 0.413 and a relative viability (JQ1; 1.265 µM) of 0.465. The relative viability (JQ1; 4 µM) was 0.409, the relative viability ([1]; 0.08 µM) was 0.952 and the relative viability ([1]; 0.253 µM) was 0.864. The relative viability ([1]; 0.8 µM) was 0.943, the relative viability ([1]; 2.53 µM) was 0.86 and the relative viability (Pimozide; 0.08 µM) was 0.849. It also gave a relative viability (Pimozide; 0.253 µM) of 0.864, a relative viability (Pimozide; 0.8 µM) of 0.998 and a relative viability (Pimozide; 2.53 µM) of 0.879. The relative viability (Pimozide; 8 µM) was 0.93.

Work on NCI-H838 yielded a relative viability (CPI-613; 5 µM) of 0.948, a relative viability (CPI-613; 15.81 µM) of 0.864 and a relative viability (CPI-613; 50 µM) of 0.883. It also gave a relative viability (CPI-613; 158.11 µM) of 0.649, a relative viability (CPI-613; 500 µM) of 0.0946 and a relative viability (Tivozanib; 0.005 µM) of 0.957. It also gave a relative viability (Tivozanib; 0.01581 µM) of 0.969, a relative viability (Tivozanib; 0.05 µM) of 1.01 and a relative viability (Tivozanib; 0.1581 µM) of 0.736. The relative viability (Tivozanib; 0.5 µM) was 0.979, the relative viability (Cytarabine; 0.005 µM) was 0.97 and the relative viability (Cytarabine; 0.01581 µM) was 0.964. It also gave a relative viability (Cytarabine; 0.05 µM) of 0.743, a relative viability (Cytarabine; 0.1581 µM) of 0.423 and a relative viability (Cytarabine; 0.5 µM) of 0.293. For the same cell line, the relative viability (Docetaxel; 0.0002 µM) was 0.937, the relative viability (Docetaxel; 0.000632 µM) was 0.867 and the relative viability (Docetaxel; 0.002 µM) was 0.393. It also gave a relative viability (Docetaxel; 0.006325 µM) of 0.197, a relative viability (Docetaxel; 0.02 µM) of 0.175 and a relative viability (JQ1; 0.04 µM) of 0.961. For the same cell line, the relative viability (JQ1; 0.1265 µM) was 0.59, the relative viability (JQ1; 0.4 µM) was 0.792 and the relative viability (JQ1; 1.265 µM) was 0.436. For the same cell line, the relative viability (JQ1; 4 µM) was 0.343, the relative viability ([1]; 0.08 µM) was 0.999 and the relative viability ([1]; 0.253 µM) was 0.93. It also gave a relative viability ([1]; 0.8 µM) of 1.05, a relative viability ([1]; 2.53 µM) of 1.16 and a relative viability (Pimozide; 0.08 µM) of 0.953. For the same cell line, the relative viability (Pimozide; 0.253 µM) was 0.998, the relative viability (Pimozide; 0.8 µM) was 0.93 and the relative viability (Pimozide; 2.53 µM) was 0.927. The relative viability (Pimozide; 8 µM) was 0.959.

NCI-H1299 gave a relative viability (CPI-613; 5 µM) of 1, a relative viability (CPI-613; 15.81 µM) of 0.984 and a relative viability (CPI-613; 50 µM) of 1. For the same cell line, the relative viability (CPI-613; 158.11 µM) was 0.992, the relative viability (CPI-613; 500 µM) was 0.973 and the relative viability (Tivozanib; 0.005 µM) was 1.01. The relative viability (Tivozanib; 0.01581 µM) was 1.03, the relative viability (Tivozanib; 0.05 µM) was 1.03 and the relative viability (Tivozanib; 0.1581 µM) was 1.02. For the same cell line, the relative viability (Tivozanib; 0.5 µM) was 0.952, the relative viability (Cytarabine; 0.005 µM) was 1.01 and the relative viability (Cytarabine; 0.01581 µM) was 1.04. The relative viability (Cytarabine; 0.05 µM) was 1.01, the relative viability (Cytarabine; 0.1581 µM) was 1.06 and the relative viability (Cytarabine; 0.5 µM) was 1.02. For the same cell line, the relative viability (Docetaxel; 0.0002 µM) was 0.998, the relative viability (Docetaxel; 0.000632 µM) was 0.975 and the relative viability (Docetaxel; 0.002 µM) was 0.868. For the same cell line, the relative viability (Docetaxel; 0.006325 µM) was 0.502, the relative viability (Docetaxel; 0.02 µM) was 0.37 and the relative viability (JQ1; 0.04 µM) was 0.974. The relative viability (JQ1; 0.1265 µM) was 0.851, the relative viability (JQ1; 0.4 µM) was 0.909 and the relative viability (JQ1; 1.265 µM) was 0.379. For the same cell line, the relative viability (JQ1; 4 µM) was 0.308, the relative viability ([1]; 0.08 µM) was 0.968 and the relative viability ([1]; 0.253 µM) was 1.01. The relative viability ([1]; 0.8 µM) was 1, the relative viability ([1]; 2.53 µM) was 0.969 and the relative viability (Pimozide; 0.08 µM) was 1.02. The relative viability (Pimozide; 0.253 µM) was 0.951, the relative viability (Pimozide; 0.8 µM) was 0.977 and the relative viability (Pimozide; 2.53 µM) was 0.995. For the same cell line, the relative viability (Pimozide; 8 µM) was 0.988.
